Converted amounts (≈) assume the structure as drawn.
Experiments:
Format in all cases: physicochemical
[1] = Solubility of the trihydrate salt in different base solutions at 25° C.
Description: The solubility of D-glucitol, 1-deoxy-1-(methylamino)-, 1-(6-amino-3,5-difluoropyridin-2-yl)-8-chloro-6-fluoro-1,4-dihydro-7-(3-hydroxyazetidin-1-yl)-4-oxo-3-quinolinecarboxylate trihydrate (salt) in different base solutions at 25° C. is shown in TABLE 3.

[2] = Solubility in different base solutions at 25° C. (free acid); details: for solubility: aqueous buffer
Description: Solubilities of 1-(6-amino-3,5-difluoropyridin-2-yl)-8-chloro-6-fluoro-1,4-dihydro-7-(3-hydroxyazetidin-1-yl)-4-oxo-3-quinolinecarboxylic acid in different base solutions at 25° C. are shown in TABLE 2.

[3] = Solubility in different buffered solutions at 25° C.
Description: Solubilities of 1-(6-amino-3,5-difluoropyridin-2-yl)-8-chloro-6-fluoro-1,4-dihydro-7-(3-hydroxyazetidin-1-yl)-4-oxo-3-quinolinecarboxylic acid in different buffered solutions at 25° C. are shown in TABLE 1.

[4] = 0.01M meglumine, final pH 9.00, 25° C.
[5] = 0.1M meglumine, final pH 9.83, 25° C.
[6] = 1M meglumine, final pH 10.85, 25° C.

CNC[C@H](O)[C@@H](O)[C@H](O)[C@H](O)CO.Nc1nc(-n2cc(C(=O)O)c(=O)c3cc(F)c(N4CC(O)C4)c(Cl)c32)c(F)cc1F.O.O.O [D-glucitol, 1-deoxy-1-(methylamino)-, 1-(6-amino-3,5-difluoropyridin-2-yl)-8-chloro-6-fluoro-1,4-dihydro-7-(3-hydroxyazetidin-1-yl)-4-oxo-3-quinolinecarboxylate trihydrate (salt)]
Ksp (M^2) [1, 4]: 4.71 × 10^−3 M^2
solubility [1, 4]: 32400 µg/mL
Ksp (M^2) [1, 5]: 4.16 × 10^−3 M^2
solubility [1, 5]: 32200 µg/mL
Ksp (M^2) [1, 6]: 3.34 × 10^−3 M^2
solubility [1, 6]: 30800 µg/mL
Ksp (M^2) ([1]; water, final pH 8.78, 25° C.): 5.00 × 10^−3 M^2
solubility ([1]; water, final pH 8.78, 25° C.): 33900 µg/mL

Nc1nc(-n2cc(C(=O)O)c(=O)c3cc(F)c(N4CC(O)C4)c(Cl)c32)c(F)cc1F [1-(6-amino-3,5-difluoropyridin-2-yl)-8-chloro-6-fluoro-1,4-dihydro-7-(3-hydroxyazetidin-1-yl)-4-oxo-3-quinolinecarboxylic acid]
Ksp (M^2) ([2]; 0.5M KOH): 1.69 × 10^−2 M^2
Swater ([2]; 0.5M KOH): 57.4 mg/mL
Ksp (M^2) ([2]; 1M L-arginine): 4.81 × 10^−4 M^2
Swater ([2]; 1M L-arginine): 9.67 mg/mL
Ksp (M^2) ([2]; 1M NaOH): 1.66 × 10^−2 M^2
Swater ([2]; 1M NaOH): 56.8 mg/mL
Ksp (M^2) ([2]; 1.0M TRIS): 1.619 × 10^−4 M^2
Swater ([2]; 1.0M TRIS): 4.8 mg/mL
Ksp (M^2) ([2]; 1M ethanolamine): 2.04 × 10^−3 M^2
Swater ([2]; 1M ethanolamine): 19.9 mg/mL
Ksp (M^2) ([2]; 1M meglumin): 2.81 × 10^−3 M^2
Swater ([2]; 1M meglumin): 23.6 mg/mL
solubility ([2]; 0.5M KOH): 24400 µg/mL (≈ 55.4 mM)
solubility ([2]; 1M L-arginine): 11200 µg/mL (≈ 25.4 mM)
solubility ([2]; 1M NaOH): 8330 µg/mL (≈ 18.9 mM)
solubility ([2]; 1.0M TRIS): 5760 µg/mL (≈ 13.1 mM)
solubility ([2]; 1M ethanolamine): 24900 µg/mL (≈ 56.5 mM)
solubility ([2]; 1M meglumin): 32100 µg/mL (≈ 72.8 mM)
solubility ([3]; 0.1 HCl (printed 0.1 HC1), simulated gastric fluid, 0.1 HC1, final pH 0.8, 25° C.): 3.26 µg/mL (≈ 0.0074 mM)
solubility ([3]; aqueous buffer, 0.1M NaOH, final pH 8.4, 25° C.): 3400 µg/mL (≈ 7.71 mM)
solubility ([3]; aqueous buffer, Phosphate Buffer 8.0, final pH 7.8, 25° C.): 651 µg/mL (≈ 1.48 mM)
solubility ([3]; aqueous buffer, citrate buffer 4.0, final pH 4.2, 25° C.): 3.44 µg/mL (≈ 0.0078 mM)
solubility ([3]; aqueous buffer, citrate buffer 5.0, final pH 5.1, 25° C.): 3.33 µg/mL (≈ 0.00756 mM)
solubility ([3]; aqueous buffer, glycine buffer 9.0, final pH 8.2, 25° C.): 2490 µg/mL (≈ 5.65 mM)
solubility ([3]; aqueous buffer, phosphate buffer 6.8, final pH 6.8, 25° C.): 66.8 µg/mL (≈ 0.152 mM)
solubility ([3]; aqueous buffer, phosphate buffer 7.4, final pH 7.4, 25° C.): 283 µg/mL (≈ 0.642 mM)
solubility ([3]; organic solvent or mixture, ethanol, 25° C.): 867 µg/mL (≈ 1.97 mM)
solubility ([3]; saline or isotonic, saline, final pH 5.8-5.9, 25° C.): 13 µg/mL (≈ 0.0295 mM)

Reference: US10329276B2, “Salt and crystalline forms thereof of a drug” (AbbVie Inc., priority 2004, dated 2019)
